# Experimental data as given in ChEMBL document CHEMBL5727399, “Ectonucleotidase inhibitors and methods of use thereof” (2019).
# “And” between values parts separate entries of the source, which are not always exact repeats. Equal values may be shown once.
# Target: 5'-nucleotidase (Homo sapiens, UniProt P21589)
# Assay: The concentration of inorganic phosphate was determined using a phosphate standard curve.
# Sequence of 5'-nucleotidase (P21589 whole entry): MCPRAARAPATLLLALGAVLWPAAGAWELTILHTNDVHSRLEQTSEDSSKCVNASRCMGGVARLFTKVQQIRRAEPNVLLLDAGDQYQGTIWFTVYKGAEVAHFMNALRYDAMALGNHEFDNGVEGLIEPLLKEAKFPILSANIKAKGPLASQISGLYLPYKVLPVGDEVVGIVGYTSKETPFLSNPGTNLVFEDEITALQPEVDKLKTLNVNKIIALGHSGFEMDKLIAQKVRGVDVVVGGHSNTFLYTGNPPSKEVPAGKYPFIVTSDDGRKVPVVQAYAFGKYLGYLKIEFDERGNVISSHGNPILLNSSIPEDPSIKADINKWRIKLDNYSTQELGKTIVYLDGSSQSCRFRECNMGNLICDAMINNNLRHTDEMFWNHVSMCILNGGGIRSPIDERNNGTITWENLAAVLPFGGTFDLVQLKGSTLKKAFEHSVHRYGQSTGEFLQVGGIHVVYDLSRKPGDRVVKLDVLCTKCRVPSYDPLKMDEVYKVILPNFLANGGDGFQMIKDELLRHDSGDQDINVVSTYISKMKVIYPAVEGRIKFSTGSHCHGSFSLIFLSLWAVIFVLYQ
row,SMILES,IC50
1,Nc1nc(Cl)nc2c1ncn2[C@@H]1O[C@H](COC(Cc2cnc(C(=O)O)s2)(C(=O)O)C(=O)O)[C@@H](O)[C@@H]1F,602 nM
2,N#Cc1ccc(CC(OC[C@H]2O[C@@H](n3cnc4c(N)nc(Cl)nc43)[C@@H](F)[C@@H]2O)(C(=O)O)C(=O)O)cc1F,887 nM
3,N#Cc1cccc(CC(OC[C@H]2O[C@@H](n3cnc4c(N)nc(N=[N+]=[N-])nc43)[C@@H](F)[C@@H]2O)(C(=O)O)C(=O)O)c1,1280 nM
4,CCOC(=O)C(Cc1ccc(OC(F)(F)F)cc1)(OC[C@H]1O[C@@H](n2cnc3c(N)nc(Cl)nc32)[C@@H](F)[C@@H]1O)C(=O)O (some centres not stated),718 nM
5,Nc1nc(Cl)nc2c1ncn2[C@@H]1O[C@H](COC(CCCCO)(C(=O)O)C(=O)O)[C@@H](O)[C@@H]1F,1890 nM
6,CNC(=O)C(OC[C@H]1O[C@@H](n2cnc3c(N)nc(Cl)nc32)[C@@H](F)[C@@H]1O)P(=O)(O)O (some centres not stated),12000 nM
7,Nc1nc(Cl)nc2c1ncn2[C@@H]1O[C@H](COC(CC(=O)O)(C(=O)O)C(=O)O)[C@@H](O)[C@@H]1F,2560 nM
8,N#CCC(OC[C@H]1O[C@@H](n2cnc3c(N)nc(Cl)nc32)[C@@H](F)[C@@H]1O)(C(=O)O)C(=O)O,1510 nM
9,"CCOC(=O)C(OC[C@H]1O[C@@H](n2cnc3c(N)nc(Cl)nc32)[C@@H](F)[C@@H]1O)P(=O)(O)O (single isomer, unassigned)",2790 nM and 8910 nM
10,"CCOC(=O)C(Cc1ccc(-c2ccccc2)cc1)(OC[C@H]1O[C@@H](n2cnc3c(N)nc(Cl)nc32)[C@@H](F)[C@@H]1O)C(=O)O (single isomer, unassigned)",7260 nM and 8260 nM
11,"CCOC(=O)C(OC[C@H]1O[C@@H](n2cnc3c(NC(=O)OC(C)(C)C)nc(Cl)nc32)[C@@H](F)[C@@H]1O)P(=O)(O)O (single isomer, unassigned)",2470 nM and 2950 nM

# Continued, values first:
row,IC50,SMILES
1,8780 nM,O=C(O)C(OC[C@H]1O[C@@H](n2cnc3c(NCc4ccccc4)nc(Cl)nc32)[C@@H](F)[C@@H]1O)C(=O)O
2,29 nM,Nc1nc(Cl)nc2c1ncn2[C@@H]1O[C@H](COC(Cc2ccc(-c3ccccc3)cc2)(C(=O)O)C(=O)O)[C@@H](O)[C@@H]1F
3,> 50000 nM,Nc1nc(Cl)nc2c1ncn2[C@H]1C[C@H](O)[C@@H](COC(C(=O)O)C(=O)O)O1
4,> 50000 nM,[N-]=[N+]=N[C@H]1[C@@H](O)[C@H](n2cnc3c(N)nc(Cl)nc32)O[C@@H]1COC(C(=O)O)C(=O)O
5,> 50000 nM,Nc1nc(Cl)nc2c1ncn2[C@@H]1O[C@H](COC(CC(=O)O)C(=O)O)[C@@H](O)[C@@H]1F (some centres not stated)
6,2860 nM and 3430 nM,"COC(=O)C(Cc1ccc(-c2ccccc2)cc1)(OC[C@H]1O[C@@H](n2cnc3c(N)nc(Cl)nc32)[C@@H](F)[C@@H]1O)C(=O)O (single isomer, unassigned)"
